Molecular target: T1, KCNQ2/3 potassium ion channel (Homo sapiens, UniProt O43525+O43526)
T1 construct: expressed in transfected cells; host or cells: CHO cells (hKCNQ-CHO)
Assay: KCNQ2/3 potassium ion channel activation assay (whole-cell patch clamp, hKCNQ-CHO cells)
Assay type: cell-based
Conditions: read-out: Enhancment % (current enhancement multiple); for activation at 3 µM: test concentration 3 μM; for activation at 0.05 µM: test concentration 0.05 μM
Procedure: Example 64: KCNQ2/3 Potassium Ion Channel Activation Assay
hKCNQ-CHO cells were cultured at 37° C. in a humidified environment of 5% CO2.
• 2.1. Extracellular fluid (mM): NaCl 145, KCl 4, CaCl2 2, MgCl2 1, Glucose 10, HEPES 10. The pH value of the extracellular fluid was adjusted to 7.4 with NaOH, and the osmotic pressure was adjusted to about 295 mOsm. • 2.2. Intracellular fluid (mM (mmol/L)): KOH 31.25, KCl 120, EGTA 10, MgCl2 1.75, CaCl2 5.374, HEPES 10, Na-ATP 4. The pH value of the intracellular fluid was adjusted to 7.4 with HCl, and the osmotic pressure was adjusted to about 285 mOsm. • 2.3. The extracellular fluid should be prepared once a week, and the intracellular fluid should be stored at −20° C. after preparation.
The model positive reference compound Retigabine (RTG) was dissolved with 100% DMSO and configured as a 10 mM working solution. The test compounds were dissolved with 100% DMSO and configured as a 10 mM working solution. The final concentration of DMSO in the test solution should be less than 0.3%.
Whole-cell patch clamp was performed at room temperature. The electrical signals recorded with the EPC 10 USB amplifier (HEKA Elektronik, Germany) were filtered by a 3 kHz low-pass filter, and finally recorded in PatchMaster 2×90.5 software (HEKA Elektronik, Germany). At this step, the quality control standard was that the cell high-resistance sealing was greater than 500 MOhms, and the detection current was greater than 0.4 nA.
The recording electrodes were pulled out and polished with a vertical puller (NARISHIGE PC-10, Japan) using a borosilicate glass capillary (GC150tF-10, Harvard Apparatus Co., UK). At this step, the quality control standard was that the electrode resistance was between 2 MΩ and 5 MΩ.
During the recording process of the whole-cell patch clamp, a continuous perfusion system (BT100-2J, LongerPump, China) was used to continuously perfuse the extracellular fluid. The perfusion system was installed on the stage of an upright microscope (FN-S2N, Nikon, Japan), and the perfusion head was manually positioned under the microscope.
The voltage command for detecting the amplitude of hKCNQ current was as follows: the cell stepped from the clamping potential of −80 mV to −30 mV, and held for 1500 ms; and then the clamping voltage was lowered to −120 my and held for 500 ms; finally, the voltage returned to the clamping potential of −80 mV. The detection voltage command was repeated every 15,000 milliseconds, and the command was continuously executed during the compound test. The quality control standard for compound action stability was the current amplitude under 5 consecutive voltage commands, and the coefficient of variation of the current amplitude was <5%.
Data analysis was performed using PatchMaster 2×90.5 software (HEKA Elektronik, Germany) and Excel 2013 (Microsoft, USA) software. For each cell's patch clamp recording, the amplitude of the hKCNQ channel current (Itest) corresponding to the test compound concentration should be obtained. The enhanced channel current was obtained by subtracting the cell's original channel current (Icontrol) from Itest and dividing by Icontrol to obtain the current enhancement multiple. That is, the current enhancement multiple (Enhancment %)=(Itest −Icontrol)/Icontrol[…].

Row | SMILES | activation at 3 µM | activation at 0.05 µM
1 | Cc1cc(N2CCNc3cc(F)ccc3C2)cc(C)c1NC(=O)CC(C)(C)C [Compound 023, N-(4-(8-fluoro-1,2,3,5-tetrahydro-4H-benzo[e][1,4]diazepin-4-yl)-2,6-dimethylphenyl)-3,3-dimethylbutanamide] | > 100% | –
2 | Cc1cc(N2CCN(C)c3cc(F)ccc3C2)cc(C)c1NC(=O)CC(C)(C)C [Compound 024, N-(4-(8-fluoro-1-methyl-1,2,3,5-tetrahydro-4H-benzo[e][1,4]diazepin-4-yl)-2,6-dimethylphenyl)-3,3-dimethylbutanamide] | 50 to 100% | –
3 | Cc1cc(N2CCSc3cc(F)ccc3C2)cc(C)c1NC(=O)CC(C)(C)C [Compound 025, N-(4-(8-fluoro-2,3-dihydrobenzo[f][1,4]thiazepin-4(5H)-yl)-2,6-dimethylphenyl)-3,3-dimethylbutanamide] | > 100% | –
4 | Cc1cc(N2CCS(=O)(=O)c3cc(F)ccc3C2)cc(C)c1NC(=O)CC(C)(C)C [Compound 026, N-(4-(8-fluoro-1,1-dioxido-2,3-dihydrobenzo[f][1,4]thiazepin-4(5H)-yl)-2,6-dimethylphenyl)-3,3-dimethylbutanamide] | > 100% | –
5 | Cc1cc(N2CC=Cc3cc(F)ccc3C2)cc(C)c1NC(=O)CC(C)(C)C [Compound 027, N-(4-(7-fluoro-1,3-dihydro-2H-benzo[c]azepin-2-yl)-2,6-dimethylphenyl)-3,3-dimethylbutanamide] | > 100% | < 50%
6 | CC1=CCN(c2cc(C)c(NC(=O)CC(C)(C)C)c(C)c2)Cc2ccc(F)cc21 [Compound 028, N-(4-(7-fluoro-5-methyl-1,3-dihydro-2H-benzo[c]azepin-2-yl)-2,6-dimethylphenyl)-3,3-dimethylbutanamide] | 50 to 100% | < 50%
7 | Cc1c(NC(=O)CC(C)(C)C)ccc(N2CCCc3cc(F)ccc3C2)c1F [Compound 029, N-(3-fluoro-4-(7-fluoro-1,3,4,5-tetrahydro-2H-benzo[c]azepin-2-yl)-2-methylphenyl)-3,3-dimethylbutanamide] | 50 to 100% | –
8 | Cc1cc(N2CCCc3cc(F)ccc3C2)c(C)c(C)c1NC(=O)CC(C)(C)C [Compound 030, N-(4-(7-fluoro-1,3,4,5-tetrahydro-2H-benzo[c]azepin-2-yl)-2,3,6-trimethylphenyl)-3,3-dimethylbutanamide] | 50 to 100% | –
9 | Cc1cc(N2CCCc3cc(F)ccc3C2)c(Cl)c(C)c1NC(=O)CC(C)(C)C [Compound 031, N-(3-chloro-4-(7-fluoro-1,3,4,5-tetrahydro-2H-benzo[c]azepin-2-yl)-2,6-dimethylphenyl)-3,3-dimethylbutanamide] | > 100% | –
10 | Cc1cc(N2CCCc3cc(OC(C)C(F)(F)F)c(F)cc3C2)cc(C)c1NC(=O)CC(C)(C)C (stereo not drawn) [Compound 034, N-(4-(8-fluoro-7-((1,1,1-trifluoropropan-2-yl)oxy)-1,3,4,5-tetrahydro-2H-benzo[c]azepin-2-yl)-2,6-dimethylphenyl)-3,3-dimethylbutanamide] | > 100% | –
11 | Cc1cc(N2CCCc3cc(O[C@@H](C)C(F)(F)F)c(F)cc3C2)cc(C)c1NC(=O)CC(C)(C)C [Compound 036, (S)—N-(4-(8-fluoro-7-((1,1,1-trifluoropropan-2-yl)oxy)-1,3,4,5-tetrahydro-2H-benzo[c]azepin-2-yl)-2,6-dimethylphenyl)-3,3-dimethylbutanamide] | > 100% | –
12 | Cc1cc(N2CCCc3cc(O[C@H](C)C(F)(F)F)c(F)cc3C2)cc(C)c1NC(=O)CC(C)(C)C [Compound 037, (R)—N-(4-(8-fluoro-7-((1,1,1-trifluoropropan-2-yl)oxy)-1,3,4,5-tetrahydro-2H-benzo[c]azepin-2-yl)-2,6-dimethylphenyl)-3,3-dimethylbutanamide] | > 100% | –
13 | COc1cc2c(cc1F)CN(c1cc(C)c(NC(=O)CC(C)(C)C)c(C)c1)CCC2 [Compound 038, N-(4-(8-fluoro-7-methoxy-1,3,4,5-tetrahydro-2H-benzo[c]azepin-2-yl)-2,6-dimethylphenyl)-3,3-dimethylbutanamide] | > 100% | –
14 | CCC(C)Oc1cc2c(cc1F)CN(c1cc(C)c(NC(=O)CC(C)(C)C)c(C)c1)CCC2 (stereo not drawn) [Compound 039, N-(4-(7-(sec-butoxy)-8-fluoro-1,3,4,5-tetrahydro-2H-benzo[c]azepin-2-yl)-2,6-dimethylphenyl)-3,3-dimethylbutanamide] | > 100% | –
15 | CC[C@H](C)Oc1cc2c(cc1F)CN(c1cc(C)c(NC(=O)CC(C)(C)C)c(C)c1)CCC2 [Compound 040, (S)—N-(4-(7-(sec-butoxy)-8-fluoro-1,3,4,5-tetrahydro-2H-benzo[c]azepin-2-yl)-2,6-dimethylphenyl)-3,3-dimethylbutanamide] | > 100% | –
16 | CC[C@@H](C)Oc1cc2c(cc1F)CN(c1cc(C)c(NC(=O)CC(C)(C)C)c(C)c1)CCC2 [Compound 041, (R)—N-(4-(7-(sec-butoxy)-8-fluoro-1,3,4,5-tetrahydro-2H-benzo[c]azepin-2-yl)-2,6-dimethylphenyl)-3,3-dimethylbutanamide] | > 100% | –
17 | Cc1cc(N2CCCc3cc(OC4CC4)c(F)cc3C2)cc(C)c1NC(=O)CC(C)(C)C [Compound 042, N-(4-(7-cyclopropoxy-8-fluoro-1,3,4,5-tetrahydro-2H-benzo[c]azepin-2-yl)-2,6-dimethylphenyl)-3,3-dimethylbutanamide] | > 100% | –
18 | Cc1cc(N2CCCc3cc(OC4CCC4)c(F)cc3C2)cc(C)c1NC(=O)CC(C)(C)C [Compound 043, N-(4-(7-cyclobutoxy-8-fluoro-1,3,4,5-tetrahydro-2H-benzo[c]azepin-2-yl)-2,6-dimethylphenyl)-3,3-dimethylbutanamide] | > 100% | –
19 | Cc1cc(N2CCCc3cc(OC4CCCC4)c(F)cc3C2)cc(C)c1NC(=O)CC(C)(C)C [Compound 044, N-(4-(7-(cyclopentyloxy)-8-fluoro-1,3,4,5-tetrahydro-2H-benzo[c]azepin-2-yl)-2,6-dimethylphenyl)-3,3-dimethylbutanamide] | > 100% | –
20 | Cc1cc(N2CCCc3cc(OC4CCCCC4)c(F)cc3C2)cc(C)c1NC(=O)CC(C)(C)C [Compound 045, N-(4-(7-(cyclohexyloxy)-8-fluoro-1,3,4,5-tetrahydro-2H-benzo[c]azepin-2-yl)-2,6-dimethylphenyl)-3,3-dimethylbutanamide] | > 100% | –
21 | Cc1cc(N2CC=Cc3cc(F)c(F)cc3C2)cc(C)c1NC(=O)CC(C)(C)C [Compound 046, N-(4-(7,8-difluoro-1,3-dihydro-2H-benzo[c]azepin-2-yl)-2,6-dimethylphenyl)-3,3-dimethylbutanamide] | > 100% | –
22 | Cc1cc(N2CCCc3cc(F)c(F)cc3C2)cc(C)c1NC(=O)CC(C)(C)C [Compound 047, N-(4-(7,8-difluoro-1,3,4,5-tetrahydro-2H-benzo[c]azepin-2-yl)-2,6-dimethylphenyl)-3,3-dimethylbutanamide] | > 100% | –
23 | Cc1cc(N2CCCc3cc(F)c(F)cc3C2)c(Cl)c(C)c1NC(=O)CC(C)(C)C [Compound 048, N-(3-chloro-4-(7,8-difluoro-1,3,4,5-tetrahydro-2H-benzo[c]azepin-2-yl)-2,6-dimethylphenyl)-3,3-dimethylbutanamide] | > 100% | –
24 | Cc1cc(N2CCC3(CC3)c3cc(F)c(F)cc3C2)cc(C)c1NC(=O)CC(C)(C)C [Compound 049, N-(4-(7,8-difluoro-3,4-dihydrospiro[benzo[c]azepine-5,1′-cyclopropan]-2(1H)-yl)-2,6-dimethylphenyl)-3,3-dimethylbutanamide] | > 100% | –
25 | Cc1cc(N2CCCc3cc(OC/C=C/C(F)(F)F)ccc3C2)cc(C)c1NC(=O)CC(C)(C)C [Compound 050, (E)-N-(2,6-dimethyl-4-(7-((4,4,4-trifluorobut-2-en-1-yl)oxy)-1,3,4,5-tetrahydro-2H-benzo[c]azepin-2-yl)phenyl)-3,3-dimethylbutanamide] | > 100% | –
